Data taken from patent US10596223B2, “JNK inhibitor molecules for treatment of various diseases” (Xigen Inflammation Ltd., priority 2011, dated 2020).
Square brackets hold non-standard residues; d marks the D form. Ends that are not written are not given here. Peptide text beside a SMILES is read from it.

What was measured:
hJNK1 = hJNK1 (Homo sapiens, UniProt P45983); test: hJNK1 | IC50
Description: (§1) Table printed on a drawing sheet, Fig. 2 Head of the field: hJNK1 | IC50 The patent's description of the figure: FIG. 2: Table illustrating the inhibitory efficacy of several JNK inhibitors (SEQ ID NOs: 193, 2, 3, 5, 6, and 7) according to the present invention. Given are the IC50 values in the nM range, the respective standard error of the mean and the number of experiments performed (n). First copying reader's note: The sheet prints no unit for IC50 and SEM; decimal commas are used and lower-case residue letters are as printed. Where the first naming reader finds the target: head: hJNK1

hJNK3 = hJNK3 (Homo sapiens, UniProt P53779); test: hJNK3 | IC50
Chain of hJNK3 (P53779 whole entry, looked up): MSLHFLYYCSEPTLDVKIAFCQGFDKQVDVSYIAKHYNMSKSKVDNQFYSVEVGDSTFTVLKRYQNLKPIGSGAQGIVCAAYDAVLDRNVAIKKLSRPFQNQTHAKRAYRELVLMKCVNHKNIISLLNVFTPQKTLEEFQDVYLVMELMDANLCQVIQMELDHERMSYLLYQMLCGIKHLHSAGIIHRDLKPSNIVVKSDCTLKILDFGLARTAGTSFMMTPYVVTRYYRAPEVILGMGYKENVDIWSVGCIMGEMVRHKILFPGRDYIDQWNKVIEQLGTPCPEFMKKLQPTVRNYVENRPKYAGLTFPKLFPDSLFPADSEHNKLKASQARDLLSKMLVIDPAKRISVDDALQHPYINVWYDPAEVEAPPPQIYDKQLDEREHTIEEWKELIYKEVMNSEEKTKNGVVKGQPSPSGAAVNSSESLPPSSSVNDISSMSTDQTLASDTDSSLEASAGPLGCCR
Description: as §1, with “hJNK3” for “hJNK1”

hJNK2 = hJNK2 (Homo sapiens, UniProt P45984); test: hJNK2 | IC50
Chain of hJNK2 (P45984 whole entry, looked up): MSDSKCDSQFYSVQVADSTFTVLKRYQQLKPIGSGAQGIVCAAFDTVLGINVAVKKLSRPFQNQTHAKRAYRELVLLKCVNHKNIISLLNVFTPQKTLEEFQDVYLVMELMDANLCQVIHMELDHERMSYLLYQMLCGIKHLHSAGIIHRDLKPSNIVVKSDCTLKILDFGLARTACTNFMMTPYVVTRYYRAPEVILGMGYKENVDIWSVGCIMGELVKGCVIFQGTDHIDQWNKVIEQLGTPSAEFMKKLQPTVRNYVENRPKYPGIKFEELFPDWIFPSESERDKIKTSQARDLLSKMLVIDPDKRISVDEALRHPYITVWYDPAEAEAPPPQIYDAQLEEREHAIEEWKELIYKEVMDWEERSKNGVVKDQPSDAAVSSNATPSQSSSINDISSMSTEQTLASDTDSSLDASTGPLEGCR
Description: as §1, with “hJNK2” for “hJNK1”

Hela cells = test: Internalization of transporter constructs, 24 hours, fluorescence of cell extracts (FIG. 6); assay type: cell-based
Protocol: The transporter sequences analyzed correspond to SEQ ID NOs: 52-94 plus SEQ ID NOs: 45, 47, 46, 43 and 99 (FIG. 6a) and SEQ ID NOs: 100-147 (FIG. 6b). […] Hela cells were incubated 24 hours in 96 well plate with […] of the respective transporters. The cells were then washed twice with an acidic buffer (0.2M Glycin, 0.15M NaCl, pH 3.0) and twice with PBS. Cells were broken by the addition of RIPA lysis buffer. The relative amount of internalized peptide was then determined by reading the fluorescence intensity (Fusion Alpha plate reader; PerkinElmer) of each extract followed by background subtraction.
Hela cells were incubated 24 hours in 96 well plate with […] of the r3-L-TAT-derived transporters. The cells were then washed twice with an acidic buffer (0.2M Glycin, 0.15M NaCl, pH 3.0) and twice with PBS. Cells were broken by the addition of RIPA lysis buffer. The relative amount of internalized peptide was then determined by reading the fluorescence intensity (Fusion Alpha plate reader; PerkinElmer) of each extract followed by background subtraction

[1] = system: endotoxins-induced uveitis albino rat model; test: Endotoxins induced uveitis (EIU), single intravenous injection, clinical scoring 24 hours after LPS; assay type: in vivo; parameters: key to clinical score of ocular inflammation, mean score (mean±SEM) / clinical score of ocular inflammation, median: ocular inflammation score per eye, 0 = none to 4 = intense (+1 fibrin); details: 20 μg/eye sub-conjunctival, 24 hours after LPS
Protocol: FIG. 28 Clinical evaluation of administration of different amounts of the JNK inhibitor according to SEQ ID NO: 172 in albino rats after intravenous administration (endotoxins induced uveitis model). Form left to right: Vehicle, 0.015 mg/kg (i.v.) of SEQ ID NO: 172; 0.18 mg/kg (i.v.) of SEQ ID NO: 172; 1.8 mg/kg (i.v.) of SEQ ID NO: 172, 2 mg/kg (i.v.) of SEQ ID NO: 197 and 20 μg dexamethasone (administered directly by subconjunctival injection to the eye). Indicated is the clinical score (mean and the SEM).
The anti-inflammatory potency of the JNK inhibitor of SEQ ID NO: 172 was tested in albino rats following intravenous administration (EIU/LPS model). The aim of this study was to determine the effects of single intravenous injections of SEQ ID NO: 172 (0.015, 0.18, and 1.80 mg/kg) on the inflammatory response in an endotoxins-induced uveitis albino rat model and to compare these affects to those obtained with prior art JNK inhibitor of SEQ ID NO: 197 (2 mg/kg). As a further control served phosphate sodic dexamethasone.
Sixty (60) male Lewis rats were randomly divided into six (6) groups of ten (10) animals each. EIU was induced by footpad injection of lipopolysaccharide (LPS, 1 mg/kg). NaCl (0.9%), SEQ ID NO: 197 at 2 mg/kg and SEQ ID NO: 172 at three concentrations (1.80 mg/kg, 0.18 mg/kg and 0.015 mg/kg) were administered by intravenous injection. Phosphate sodic dexamethasone ([…]) was administered by sub-conjunctival injection in both eyes. 24 hours after LPS injection, inflammatory response was evaluated by clinical scoring.
The intensity of clinical ocular inflammation was scored on a scale from 0 to 4 for each eye: • Grade 0 no inflammation • Grade 1 slight iris and conjunctival vasodilation • Grade 2 moderate iris and conjunctival vasodilation with flare • Grade 3 intense iris and conjunctival vasodilation with flare • Grade 4 intense inflammatory reaction • (+1) fibrin formation and seclusion of pupils

[2] = Stability (half-life) in human serum, intact peptide by UPLC-MS; assay type: in vitro ADME; details: human serum (50% in FIG. 5; 10 and 50% in PBS), 0.1 mM peptide
Protocol: FIG. 5: Stability of JNK inhibitors with SEQ ID NOs: 172, 196 and 197 in 50% human serum. The JNK inhibitor with SEQ ID NO: 196 was totally degraded into amino acids residues within 6 hours (A). The JNK inhibitor with SEQ ID NO: 172 was completely degraded only after 14 days (B). The JNK inhibitor with SEQ ID NO: 197 was stable at least up to 30 days (B).
The JNK inhibitors with the sequence of SEQ ID NOs: 196, 197, and 172 (0.1 mM final concentration) were digested in human serum (10 and 50% in PBS 1×). The experiment was performed as described by Tugyi et al. (Proc Natl Acad Sci USA, 2005, 413-418). The remaining intact peptide was quantified by UPLC-MS. Stability was assessed for SEQ ID NOs: 196, 197, and 172 identically but in two separate assays. While the JNK inhibitor with SEQ ID NO: 196 was totally degraded into amino acids residues within 6 hours, the JNK inhibitor with SEQ ID NO: 172 was completely degraded only after 14 days. The JNK inhibitor with SEQ ID NO: 197 was still stable after 30 days.

Chain of hJNK1 (P45983 whole entry, looked up): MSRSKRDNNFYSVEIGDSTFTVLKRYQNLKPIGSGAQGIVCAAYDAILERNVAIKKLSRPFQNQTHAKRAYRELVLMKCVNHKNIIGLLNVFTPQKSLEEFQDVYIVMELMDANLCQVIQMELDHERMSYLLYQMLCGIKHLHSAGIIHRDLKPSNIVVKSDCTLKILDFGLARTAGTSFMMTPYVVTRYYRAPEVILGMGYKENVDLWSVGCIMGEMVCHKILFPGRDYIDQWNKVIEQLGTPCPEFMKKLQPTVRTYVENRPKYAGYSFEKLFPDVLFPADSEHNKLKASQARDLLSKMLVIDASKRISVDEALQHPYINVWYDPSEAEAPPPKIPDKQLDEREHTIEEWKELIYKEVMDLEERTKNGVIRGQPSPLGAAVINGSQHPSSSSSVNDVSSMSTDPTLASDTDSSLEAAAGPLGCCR

| Compound | IC50 (hJNK1) | IC50 (hJNK3) | IC50 (hJNK2) | further results |
| --- | --- | --- | --- | --- |
| CC(C)C[C@H](NC(=O)[C@@H](NC(=O)[C@@H](NC(=O)[C@@H]1CCCN1C(=O)[C@H](CCCNC(=N)N)NC(=O)[C@H](CCCCN)NC(=O)[C@@H]1CCCN1C(=O)[C@@H](N)CCCNC(=N)N)[C@@H](C)O)[C@@H](C)O)C(=O)N[C@H](CC(N)=O)C(=O)N[C@@H](CC(C)C)C(=O)N[C@@H](Cc1ccccc1)C(N)=O [SEQ ID NO: 5] (H-RPKRPTTL[dN]LF-NH2) | 0.348 µM | 0.387 µM | – | – |
| H-RPKRPTTLNLF-NH2 [SEQ ID NO: 193] | 0.0395 µM | 0.0677 µM | 0.184 µM | – |
| rYKRrQRRr ([dR]YKR[dR]QRR[dR]) [SEQ ID NO: 142] | – | – | – | transporter activity (Y in position 2) (Hela cells): highest transporter activity |
| CC(C)C[C@H](NC(=O)[C@@H](NC(=O)[C@@H](NC(=O)[C@@H]1CCCN1C(=O)[C@H](CCCNC(=N)N)NC(=O)[C@H](CCCCN)NC(=O)[C@@H]1CCCN1C(=O)[C@@H](N)CCCNC(=N)N)[C@@H](C)O)[C@@H](C)O)C(=O)N[C@H](CCCNC(=N)N)C(=O)N[C@@H](CC(C)C)C(=O)N[C@@H](Cc1ccccc1)C(N)=O [SEQ ID NO: 6] (H-RPKRPTTL[dR]LF-NH2) | 0.0905 µM | 0.12 µM | 0.359 µM | – |
| C[C@@H]1C[C@H]2[C@@H]3CCC4=CC(=O)C=C[C@]4(C)[C@@]3(F)[C@@H](O)C[C@]2(C)[C@@]1(O)C(=O)CO [dexamethasone, reference compound] | – | – | – | clinical score of ocular inflammation, mean score (mean±SEM) [1]: 0.8±0.2; clinical score of ocular inflammation, median [1]: 0.5 |
| CC(C)C[C@H](NC(=O)[C@H](CC(N)=O)NC(=O)[C@H](CC(C)C)NC(=O)[C@@H](NC(=O)[C@@H](NC(=O)[C@@H]1CCCN1C(=O)[C@H](CCCNC(=N)N)NC(=O)[C@@H](CCCCN)NC(=O)[C@@H]1CCCN1C(=O)[C@@H](N)CCCNC(=N)N)[C@@H](C)O)[C@@H](C)O)C(=O)N[C@@H](Cc1ccccc1)C(N)=O [SEQ ID NO: 3] (H-RP[dK]RPTTLNLF-NH2) | 0.312 µM | 0.359 µM | 1.21 µM | – |
| CC(C)C[C@H](NC(=O)[C@H](CC(N)=O)NC(=O)[C@H](CC(C)C)NC(=O)[C@@H](NC(=O)[C@@H](NC(=O)[C@@H]1CCCN1C(=O)[C@H](CCCNC(=N)N)NC(=O)[C@H](CCCCN)NC(=O)[C@@H]1CCCN1C(=O)[C@@H](N)CCCNC(=N)N)[C@@H](C)O)[C@@H](C)O)C(=O)N[C@H](Cc1ccccc1)C(N)=O [SEQ ID NO: 7] (H-RPKRPTTLNL[dF]-NH2) | – | 0.089 µM | 0.278 µM | – |
| GRKKRRQRRRPPRPKRPTTLNLFPQVPRSQD [SEQ ID NO: 196, reference compound] | – | – | – | totally degraded into amino acids residues within [2]: ≤ 6 h |
| CC(C)C[C@H](NC(=O)[C@H](CC(N)=O)NC(=O)[C@H](CC(C)C)NC(=O)[C@@H](NC(=O)[C@@H](NC(=O)[C@@H]1CCCN1C(=O)[C@H](CCCNC(=N)N)NC(=O)[C@H](CCCCN)NC(=O)[C@@H]1CCCN1C(=O)[C@H](N)CCCNC(=N)N)[C@@H](C)O)[C@@H](C)O)C(=O)N[C@@H](Cc1ccccc1)C(N)=O [SEQ ID NO: 2] (H-[dR]PKRPTTLNLF-NH2) | – | 0.103 µM | 0.424 µM | – |
